In patent US12692246B2, “Solid form of a bradykinin B2-receptor antagonist” (PHARVARIS GMBH, priority 2021, dated 2026):

Assays:
Type in all cases: physicochemical
[1] = Slow evaporative crystallisation trials (solubility observed in solvents)
Method: Into crystallisation tubes (5 ml vol) was charged 20 mg of amorphous (S)—N-(1-deutero-1-(3-chloro-5-fluoro-2-((2-methyl-4-(1-methyl-1H-1,2,4-triazol-5-yl)quinolin-8-yloxy)methyl)phenyl)ethyl)-2-(difluoromethoxy)acetamide. A total of 26 solvents or solvent mixtures were charged to the tubes and the solids agitated over a period of 48 hours at RT and cooled to 0° C.
Slow evaporative crystallisation trials were continued by transferring samples to smaller tapered tubes without agitation and needle bleeds fitted. Slow evaporative crystallisation was attempted with scratching at various points to help induce crystallisation.
Following two weeks, liquors remained in most cases with no evidence of crystallisation. At this point heteronuclear seeding was attempted with a very similar crystalline API source. This had no impact upon the results. The majority of test cases returned clear glasses.

[2] = Mixed solvent cooling crystallization trials (solubility in six solvents); conditions: 200 mg amorphous material; MeOH, MeCN, MEK, THF, EtOAc, TBME; solutions at 0.5 vol., 25° C., ca. 66 hours equilibration
Method: Amorphous (S)—N-(1-deutero-1-(3-chloro-5-fluoro-2-((2-methyl-4-(1-methyl-1H-1,2,4-triazol-5-yl)quinolin-8-yloxy)methyl)phenyl)ethyl)-2-(difluoromethoxy)acetamide, 6×200 mg, was weighed into crystallisation tubes and charged with solvents (MeOH, MeCN, MEK, THE, EtOAc and TBME) in 0.05 ml (0.25 vol.) aliquots at 25° C. […] Additional solvent (made up to 0.5 vol.) yielded thick yellow solutions. The solutions were equilibrated at 25° C. for ca. 66 hours though this had no impact on the yellow solutions.
Additional solvent was charged to each API solution up to 1 ml (5 vol.) and the solutions were heated to 40° C. and clarified. Heptane was charged in 50 μL aliquots to each solution before cooling to 25° C. over 1 hour. The volume charged and observations at 40 and 25° C. are detailed in Table 3.

[3] = Gravimetric Vapour Sorption (GVS); conditions: 25° C.
Method: Sorption isotherms were obtained using a Hiden Isochema moisture sorption analyser (model IGAsorp), controlled by IGAsorp Systems Software V6.50.48. The sample was maintained at a constant temperature (25° C.) by the instrument controls. The humidity was controlled by mixing streams of dry and wet nitrogen, with a total flow of 250 ml.min^−1. The instrument was verified for relative humidity content by measuring three calibrated Rotronic salt solutions (10-50-88%). The weight change of the sample was monitored as a function of humidity by a microbalance (accuracy+/−0.005 mg). A defined amount of sample was placed in a tared mesh stainless steel basket under ambient conditions. A full experimental cycle typically consisted of three scans (sorption, desorption and sorption) at a constant temperature (25° C.) and 10% RH intervals over a 0-90% range (60 minutes for each humidity level).

[2H][C@@](C)(NC(=O)COC(F)F)c1cc(F)cc(Cl)c1COc1cccc2c(-c3ncnn3C)cc(C)nc12 [(S)—N-(1-deutero-1-(3-chloro-5-fluoro-2-((2-methyl-4-(1-methyl-1H-1,2,4-triazol-5-yl)quinolin-8-yloxy)methyl)phenyl)ethyl)-2-(difluoromethoxy)acetamide]
solubility in solvents ([1]; 20 mg amorphous material, 26 solvents or solvent mixtures, agitated 48 hours at RT and cooled to 0° C., in the majority of solvents): extreme solubility
solubility in solvents (continued trials) ([1]; continued slow evaporation without agitation, scratching, heteronuclear seeding, 3 weeks): extreme solubility
solubility in the 6 solvents investigated [2]: high solubility

[2H][C@@](C)(NC(=O)COC(F)F)c1cc(F)cc(Cl)c1COc1cccc2c(-c3ncnn3C)cc(C)nc12 [Form A, (S)—N-(1-deutero-1-(3-chloro-5-fluoro-2-((2-methyl-4-(1-methyl-1H-1,2,4-triazol-5-yl)quinolin-8-yloxy)methyl)phenyl)ethyl)-2-(difluoromethoxy)acetamide monohydrate]
GVS overall weight change ([3]; between 0 and 90% RH): ca. 1.9 wt %
GVS hysteresis ([3]; between 10 and 80% RH): 0.2-0.4 wt %
